Test results reported in article PMC8382911 (Molecular Biology and Evolution, 2021).
Positions count from the first letter of the chain named. “And” between values parts separate entries of the source, which are not always exact repeats. Identical values can stand only once.

T1: N. maga MalDH (Natrialba magadii, UniProt D3SVD7)
T1 construct: gene mdh; tetrameric MalDH family
T1 sequence (D3SVD7 1-304): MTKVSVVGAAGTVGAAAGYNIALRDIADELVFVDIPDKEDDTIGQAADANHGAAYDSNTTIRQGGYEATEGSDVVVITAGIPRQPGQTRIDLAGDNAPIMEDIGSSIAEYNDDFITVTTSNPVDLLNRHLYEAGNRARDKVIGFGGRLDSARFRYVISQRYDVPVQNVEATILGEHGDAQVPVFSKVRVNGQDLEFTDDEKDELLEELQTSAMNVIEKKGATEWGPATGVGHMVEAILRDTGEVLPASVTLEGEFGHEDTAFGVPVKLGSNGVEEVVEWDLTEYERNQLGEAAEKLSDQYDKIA

T2: Anc80 MalDH (synthetic construct, UniProt Z9KM54M7L8)
T2 construct: tetramer
T2 sequence (Z9KM54M7L8 1-304): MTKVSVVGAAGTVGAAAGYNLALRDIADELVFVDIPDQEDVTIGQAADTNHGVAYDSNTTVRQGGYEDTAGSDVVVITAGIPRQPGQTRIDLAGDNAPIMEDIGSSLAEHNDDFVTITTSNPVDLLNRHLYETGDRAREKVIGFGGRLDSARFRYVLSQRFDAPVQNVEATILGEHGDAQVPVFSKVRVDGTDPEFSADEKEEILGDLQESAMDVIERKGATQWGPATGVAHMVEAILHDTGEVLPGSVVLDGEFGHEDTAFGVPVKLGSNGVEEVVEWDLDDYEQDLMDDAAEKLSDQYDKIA

T3: H. mari MalDH (Haloarcula marismortui, UniProt Q07841)
T3 construct: gene mdh; tetramer about 130 kDa
T3 sequence (Q07841 1-304): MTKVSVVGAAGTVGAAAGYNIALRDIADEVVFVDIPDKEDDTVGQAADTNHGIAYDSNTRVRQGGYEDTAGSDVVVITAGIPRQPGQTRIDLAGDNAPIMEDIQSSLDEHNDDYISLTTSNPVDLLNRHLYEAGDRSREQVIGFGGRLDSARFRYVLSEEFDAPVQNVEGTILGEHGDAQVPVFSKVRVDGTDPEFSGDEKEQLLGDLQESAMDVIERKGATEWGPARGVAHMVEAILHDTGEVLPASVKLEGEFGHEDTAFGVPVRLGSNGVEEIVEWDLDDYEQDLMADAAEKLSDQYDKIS

T4: Anc88 MalDH (synthetic construct, UniProt Z9B5L9LSO7)
T4 sequence (Z9B5L9LSO7 1-304): T2 sequence (Z9KM54M7L8 1-304) with L21I, V41D, I204L, G247A, V250K

B1: Haloferax volcanii malate dehydrogenase (enzyme, UniProt Q9P9L2 1-304, looked up)
chain: MTKVSVIGAAGTVGAAAGYNLALRDVCDELVFVDIPKMEDKTVGQAADTNHGIAYDSNTVVTQGGYEDTAGSDVVVITAGIPRQPGQTRIDLAGDNAPIMDDIGSSLAEYNDDFVSITTSNPVDLLNRHLYETGDRDRHKVIGFGGRLDSARFRYVLSQRFDVPVKNVDATILGEHGDAQVPVFSKVRVDGNDPAFSADEKEEILGDLQESAMDVIERKGATQWGPATGVAHMVEAVLHDTGEVLPGSLVLDGEFGYEDTAFGVPVKLGSNGIEEVVEWDLDDYEADLMDDAAEKLRDQYDEIA
notes: malate dehydrogenase (MalDH) of Haloferax volcanii; S6-S8; Tetramer in molar KCl; the oligomeric state depends on salt type and concentration (monomer in 0.2 M KCl); also called H. volc MalDH; MalDH of H. volcanii

Tests used:
[1] = system: Anc78 MalDH (LCAHa) (synthetic construct); assay: NADH oxidation at […] nm, OAA concentration profile; format: biochemical; details: 3.8 M KCl, 50 mM Tris-HCl pH 7, 25 C, 0.2 mM NADH; inhibited by excess substrate
[2] = target: T1, N. maga MalDH; assay: NADH oxidation at […] nm, OAA concentration profile; format: biochemical; details: 3.8 M KCl, 50 mM Tris-HCl pH 7, 25 C, 0.2 mM NADH; no inhibition by excess substrate
[3] = target: T2, Anc80 MalDH; assay: NADH oxidation at […] nm, OAA concentration profile; format: biochemical; details: 3.8 M KCl, 50 mM Tris-HCl pH 7, 25 C, 0.2 mM NADH; inhibited by excess substrate
[4] = target: T3, H. mari MalDH; assay: NADH oxidation at […] nm, OAA concentration profile; format: biochemical; details: 3.8 M KCl, 50 mM Tris-HCl pH 7, 25 C, 0.2 mM NADH; no inhibition by excess substrate
[5] = target: T4, Anc88 MalDH; assay: NADH oxidation at […] nm, OAA concentration profile; format: biochemical; details: 3.8 M KCl, 50 mM Tris-HCl pH 7, 25 C, 0.2 mM NADH; no inhibition by excess substrate
[6] = target: the molecule itself; assay: AUC; sedimentation velocity, 20 °C, 0.1 mg/ml, 50 mM Tris pH 7.0, 1.0 M KCl
[7] = target: the molecule itself; assay: AUC; sedimentation velocity, 20 °C, 0.1 mg/ml, 50 mM Tris pH 7.0, 0.2 M KF, after 24 h incubation
[8] = target: the molecule itself; assay: AUC; sedimentation velocity, 20 °C, 0.1 mg/ml, 50 mM Tris pH 7.0, 0.1 M KCl + 0.05 M MgCl2

Row | Molecule | NADH oxidation at 340 nm, OAA concentration profile [1] | NADH oxidation at 340 nm, OAA concentration profile [2] | NADH oxidation at 340 nm, OAA concentration profile [3] | NADH oxidation at 340 nm, OAA concentration profile [4] | NADH oxidation at 340 nm, OAA concentration profile [5] | stoichiometry N [6] | stoichiometry N [7] | stoichiometry N [8]
1 | O=C(O)CC(=O)C(=O)O [oxaloacetate] | Anc78 and Anc80 MalDHs show a typical phenomenon of inhibition by an excess of substrate | the inhibition by high concentration of OAA is abolished (fig. 7C) | Anc78 and Anc80 MalDHs show a typical phenomenon of inhibition by an excess of substrate | H. mari MalDH is not sensitive to inhibition by high concentration of OAA | (Anc88), the inhibition by high concentration of OAA is abolished (fig. 7C) |  |  | 
2 | B1 |  |  |  |  |  | 4 | 4 and 2 | 4
